From patent US9290464B2 (priority 2010, dated 2016)

Columns and labels:
[1] = test system: cytochrome c; experiment: Release of cytochrome c into cytoplasm (western blot) in MPP+-treated cells; assay type: cell-based, human; settings: MPP+-added neurons; FIG. 17
From the text: In addition, apoptosis is known to be caused by mechanisms of release of cytochrome c from mitochondria and activation of caspase 3 (The New England journal of Medicine, 348:1365-1375 (2003)). To confirm whether or not the stability of the transmembrane potential of mitochondria by the treatment of CBI is associated with anti-apoptosis of neurons, cell extracts were obtained from the groups of cells, and thus the amount of cytochrome c and the activity of caspase 3 in the cell cytoplasm were measured.
SH-SY5Y cells were incubated under the same conditions as described in Example 7, and then washed with PBS. A protease inhibitor cocktail (Roche) and a phosphatase inhibitor cocktail (Roche) were added to a […] buffer (20 mM HEPES, 10 mM KCl, 2 mM MgCl2, 1 mM EDTA), and the SH-SY5Y cells were treated with 100 ul of the resulting solution and then suspended uniformly. The resultant was maintained on ice for 30 minutes, and then centrifuged at 12,000 rpm for 20 minutes. Subsequently, the same amount of the supernatant was loaded onto a SDS-PAGE gel followed by electrophoresis, the gel was transferred onto a nitrocellulose membrane, the membrane was blotted using cytochrome c (Santacruz, sc13156) diluted to 1:2000 by using a well-known method in the art, and the expression of cytochrome c was evaluated using ECL kit (Amersham Pharmacia).

[2] = test system: MPTP-induced monkey; experiment: Parkinson's disease score in MPTP-induced monkey; assay type: in vivo, Macaque monkeys; settings: 1 mg/kg oral for 4 weeks after MPTP; compared with group given 1 mg/kg rasagiline; FIG. 1
Method: Macaque monkeys (n=35, 3 to 4-year-old) were used as an experimental model. The macaque monkeys were divided into three groups, and 0.2 mg/kg of MPTP was administered to each group (once a day, every day, until Parkinson's disease score reaches 8 or for 14 days) via intravenous injection. […] In addition, to confirm the effect of […] as a dopamine agonist, dopamine transporters existing in medial striatum and caudal striatum taken from the MPTP-induced monkey model were subjected to a dopamine transporter binding assay.
The extent of Parkinson's disease was measured by analyzing videotaped behaviors of each group of monkeys, based on four standards: a) range of movement, b) hypokinesia, c) extent of abnormal posture, and d) tremor. A Parkinson's disease score was evaluated by the sum of (4-range of movement)+hypokinesia+extent of abnormal posture+tremor. […] The Parkinson's disease score was measured for 10 minutes every 30 minutes through 2 hours. That is, the maximum value of the highest Parkinson's disease score is 40. Meanwhile, the measurement method performed based on the four standards was as follows, and evaluated scores below represent representative behaviors observed through observation periods: […]

NC(=O)OCc1cc(-c2ccc(OCc3ccccc3)cc2)no1 [CBI, carbamic acid 3-(4-benzyloxy-phenyl)-isoxazole-5-yl methylester]
amount of cytochrome c in the cytoplasm [1]: decreased
amount of cytochrome c released from mitochondria compared with same amount of rasagiline [1]: smaller
extent of Parkinson's disease (Parkinson's disease score) [2]: significantly decreased extent of Parkinson's disease
